Data reported in patent publication US9670261B2 (Sanofi, priority 2012, dated 2017).
*1 amine or outer side, *2 acyl side, *3 side chain or, on linkers, in order; H or OH if unused. Where a SMILES comes first, the peptide text is derived from it. Side-chain parts run from the residue outwards. [ ]: non-standard residue; d: D form. The star is where a group is joined. γGlu = O=C(O)[C@H](CCC(=O)[*:2])N[*:1]; Palmitoyl = CCCCCCCCCCCCCCCC(=O)*; Aib = CC(C)(N)C(=O)O

Columns and labels:
[1] = Pharmacokinetic testing in Göttinger minipigs, s.c.; type: in vivo; conditions: female, minipig, plasma, sc, Mini pigs, 0.1 mg/kg s.c.
Description: Female Göttinger minipigs were dosed 0.1 mg/kg subcutaneously (s.c.). Blood samples were collected after 0.25, 0.5, 1, 2, 4, 8, 24, 32, 48, 56 and 72 hours post application. Plasma samples were analyzed after protein precipitation via liquid chromatography mass spectrometry (LC/MS). PK parameters and half-life were calculated using WinonLin Version 5.2.1 (non-compartment model).

[2] = Chemical stability in solution, 7 days at 25° C. (% remaining peptide); conditions: % remaining peptide after 7 days at 25° C.
Description: After that time course, the sample was centrifuged for 20 min at 4000 rpm and the supernatant was analysed with HPLC-UV. For determination of the amount of the remaining peptide, the peak areas of the target compound at t0 and t7 were compared, resulting in “% remaining peptide”, following the equation % remaining peptide=[(peak area peptide t7)×100]/peak area peptide t0.
The chemical stability is expressed as “% remaining peptide”.

human GIP receptor = biological target: T1, human GIP receptor (Homo sapiens, UniProt P48546); assay: cAMP response (HTRF) of HEK-293 cells stably expressing human GIP receptor; type: cell-based; conditions: Table 7; cAMP formation; read-out: EC50 hGIP R
T1 construct: expressed in transfected cells
T1 sequence (P48546 22-466): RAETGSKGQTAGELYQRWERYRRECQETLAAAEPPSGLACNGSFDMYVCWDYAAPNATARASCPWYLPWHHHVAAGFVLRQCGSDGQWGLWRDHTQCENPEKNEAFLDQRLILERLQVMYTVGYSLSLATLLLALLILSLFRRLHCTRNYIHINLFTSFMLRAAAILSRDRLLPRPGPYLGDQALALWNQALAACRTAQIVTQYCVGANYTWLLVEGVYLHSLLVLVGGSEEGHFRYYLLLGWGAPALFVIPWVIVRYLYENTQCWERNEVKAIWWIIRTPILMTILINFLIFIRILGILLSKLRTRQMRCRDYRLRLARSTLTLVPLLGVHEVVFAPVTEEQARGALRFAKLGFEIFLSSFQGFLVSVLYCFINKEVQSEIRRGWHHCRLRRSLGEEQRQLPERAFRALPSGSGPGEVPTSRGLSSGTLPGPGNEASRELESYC
How it was run: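 HEK-293 cells stably expressing the receptor were resuspended at 400000 cells/ml in HBSS/20 mM HEPES/0.1% BSA buffer with 2 mM IBMX. Cells were stimulated with compound for 30 min at room temperature. Intracellular cAMP was measured by HTRF.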

[3] = Solubility testing in buffer (HPLC-UV); conditions: buffer
female NMRI-mice = assay: Gastric emptying and intestinal passage in mice; type: in vivo; conditions: versus vehicle control
Description: Female NMRI-mice of a body weight between 20 and 30 g were used. Mice were adapted to housing conditions for at least one week. Mice were overnight fasted, while water remained available all the time. On the study day, mice were weighed, single-caged and allowed access to 500 mg of feed for 30 min, while water was removed. At the end of the […], remaining feed was removed and weighed. Then, the test compound/reference compound or its vehicle in the control group was administered subcutaneously. 60 min later, to allow the compound to reach relevant plasma exposure, a coloured, non-caloric bolus was instilled via gavage into the stomach. After another 30 min, the animals were sacrificed and the stomach and the small intestine prepared. The filled stomach was weighed, emptied, carefully cleaned and dried and reweighed. The stomach content, calculated as weight of filled subtracted by the weight of emptied stomach, indicated the degree of gastric emptying. The small intestine was straightened without force and measured in length. Then the distance from the gastric beginning of the gut to the tip of the farthest traveled intestinal content bolus was measured. The intestinal passage was given as ratio in percent of the latter distance and the total length of the small intestine. […] Statistical analyses were performed with Everstat 6.0 by 1-way-ANOVA, followed by Dunnett's as post-hoc test. Dunnett's Test was applied to compare versus vehicle control. Differences were considered statistically significant at the p<0.05 level.

[4] = tested on: female diet-induced obese (DIO) C57BL/6NCrl mice; assay: Blood glucose and body weight in DIO mice, 18 weeks on high-fat diet (method 1); type: in vivo; conditions: for decrease of body weight, relative change from baseline: 4 weeks; for Bodyfat change / Overall weight change: 4-week treatment, mean ± SEM
Description: Female C57BL/6NCrl mice were housed in groups in a specific pathogen-free barrier facility on a 12 h light/dark cycle with free access to water and high-fat diet. After 18 weeks on high-fat diet, mice were stratified to treatment groups (n=8), so that each group had similar mean body weight. An aged-matched group with ad libitum access to standard chow was included as standard control group.
Before the experiment, mice were subcutaneously (s.c.) injected with vehicle solution and weighed for 3 days to acclimate them to the procedures.
The volume of administration was 5 mL/kg. The animals had access to water and their corresponding diet during the experiment, food consumption was determined at all time points of blood sampling. Blood glucose levels were measured at t=0.5 h, t=1 h, t=2 h, t=4 h, t=6 h, t=8 h, and t=24 h (method: d-glucose hexokinase, hemolysate, AU640 Beckman Coulter). Blood sampling was performed by tail incision without anaesthesia.
Body weight was recorded daily. On days 6 and 28, total fat mass was measured by nuclear magnetic resonance (NMR) using a Bruker minispec (Ettlingen, Germany).
Statistical analyses were performed with Everstat 6.0 by repeated measures two-way ANOVA and Dunnett's post-hoc analyses (glucose profile) and 1-way-ANOVA, followed by Dunnett's post-hoc test (body weight, body fat). Differences versus vehicle-treated DIO control mice were considered statistically significant at the p<0.05 level.
Diet-induced obese female C57BL/6NCrl mice were administered daily in the afternoon, at the end of the light phase (12 h lights on) with 10, 30 and 100 μg/kg of SEQ ID NO: 9 or phosphate buffered solution (vehicle control on standard or high-fat diet) subcutaneously. On day 6 of treatment and at predefined time points, more blood samples were taken to measure blood glucose and generate the blood glucose profile over 24 h.
Female obese C57BL/6NCrl mice were treated for 4 weeks once daily subcutaneously in the afternoon, at the end of the light phase (12 h lights on) with 10, 30 or 100 μg/kg SEQ ID NO: 9 or vehicle. Body weight was recorded daily, and body fat content was determined before the start of treatment and after 4 weeks of treatment.

[5] = Pharmacokinetic testing in mice, s.c.; conditions: mouse, plasma, sc, 1 mg/kg
Description: Mice were dosed 1 mg/kg subcutaneously (s.c.). The mice were sacrified and blood samples were collected after 0.25, 0.5, 1, 2, 4, 8, 16 and 24 hours post application. Plasma samples were analyzed after protein precipitation via liquid chromatography mass spectrometry (LC/MS). PK parameters and half-life were calculated using WinonLin Version 5.2.1 (non-compartment model).

For `CCCCCCCCCCCCCCCC(=O)N[C@@H](CCC(=O)NCCCC[C@H](NC(=O)[C@H](CCC(N)=O)NC(=O)[C@@H](NC(=O)[C@H](CO)NC(=O)[C@H](CC(C)C)NC(=O)[C@H](CC(=O)O)NC(=O)[C@H](CO)NC(=O)[C@@H](NC(=O)[C@H](Cc1ccccc1)NC(=O)[C@@H](NC(=O)CNC(=O)[C@H](CCC(=O)O)NC(=O)C(C)(C)NC(=O)[C@@H](N)Cc1ccc(O)cc1)[C@@H](C)O)[C@@H](C)O)[C@@H](C)CC)C(=O)N[C@@H](CCC(=O)O)C(=O)N[C@@H](CCCCN)C(=O)N[C@@H](CCCNC(=N)N)C(=O)N[C@@H](C)C(=O)N[C@@H](C)C(=O)NC(C)(C)C(=O)N[C@@H](CCC(=O)O)C(=O)N[C@@H](Cc1ccccc1)C(=O)N[C@H](C(=O)N[C@@H](CCC(=O)O)C(=O)N[C@@H](Cc1c[nH]c2ccccc12)C(=O)N[C@@H](CC(C)C)C(=O)N[C@@H](CCCCN)C(=O)N[C@@H](CC(N)=O)C(=O)N[C@H](C(=O)NCC(=O)N1CCC[C@H]1C(=O)N[C@@H](CO)C(=O)N[C@@H](CO)C(=O)NCC(=O)N[C@@H](C)C(=O)N1CCC[C@H]1C(=O)N1CCC[C@H]1C(=O)N1CCC[C@H]1C(=O)N[C@@H](CO)C(N)=O)[C@@H](C)O)[C@@H](C)CC)C(=O)O` [SEQ ID NO: 9, Y-Aib-E-G-T-F-T-S-D-L-S-I-Q-K(γE-x53)-E-K-R-A-A-Aib-E-F-I-E-W-L-K-N-T-G-P-S-S-G-A-P-P-P-S-NH2] (H-Y[Aib]EGTFTSDLSIQK([γGlu-Palmitoyl])EKRAA[Aib]EFIEWLKNTGPSSGAPPPS-NH2), the Cmax [1] was 278 ng/mL, the half-life [1] was 732 min and the “Stability (pH 4.5)” value ([2]; pH 4.5) was 92.5%. The “Stability (pH 7.4)” value ([2]; pH 7.4) was 97.7%, the EC50 (human GIP receptor) was 5.7 pM and the solubility at 2 h ([3]; pH 4.5) was greater than 1000 µg/mL. The solubility at 2 h ([3]; pH 7.4) was greater than 1000 µg/mL, the “increase of remaining gastric contents” value (female NMRI-mice; 1 μg/kg s.c.) was 32% and the “reduction of intestinal passage” value (female NMRI-mice; 1 μg/kg s.c.) was 49%. For the same compound, the “increase of remaining gastric contents” value (female NMRI-mice; 3 μg/kg s.c.) was 79%, the “reduction of intestinal passage” value (female NMRI-mice; 3 μg/kg s.c.) was 62% and the “increase of remaining gastric contents” value (female NMRI-mice; 10 μg/kg s.c.) was 111%. For the same compound, the “reduction of intestinal passage” value (female NMRI-mice; 10 μg/kg s.c.) was 64%, the “decrease of body weight, relative change from baseline” value ([4]; 10 μg/kg s.c. once daily) was 13.3-16.4% and the Bodyfat change ([4]; 10 μg/kg) was -4.2 ± 0.4 g. For the same compound, the Overall weight change ([4]; 10 μg/kg) was -5.0 ± 0.5 g, the “decrease of body weight, relative change from baseline” value ([4]; 30 μg/kg s.c. once daily) was 17.6-20.9% and the Bodyfat change ([4]; 30 μg/kg) was -6.1 ± 0.4 g. For the same compound, the Overall weight change ([4]; 30 μg/kg) was -6.9 ± 0.5 g, the “decrease of body weight, relative change from baseline” value ([4]; 100 μg/kg s.c. once daily) was 21.7-22.7% and the Bodyfat change ([4]; 100 μg/kg) was -6.4 ± 0.5 g. For the same compound, the Overall weight change ([4]; 100 μg/kg) was -7.3 ± 0.6 g, the “basal blood glucose levels compared to DIO control mice” value ([4]; day 6 of treatment, 10, 30 and 100 μg/kg s.c. daily) was “dose-dependently decreased” and the Cmax [5] was 5470 ng/mL. The half-life [5] was 246 min.
